Results as given in ChEMBL document CHEMBL1649360, “β-carboline alkaloids from Stellaria dichotoma var. lanceolata and their anti-inflammatory activity” (J Nat Prod, 2010).

What follows are compounds tested on RAW264.7 (assay: Antiinflammatory activity in mouse RAW264.7 cells assessed as inhibition of LPS-stimulated nitric oxide production treated for 2 hrs before LPS challenge measured after 24 hrs […]).
Format: functional, cell-based

IC50	SMILES
17.3 µM	COC(=O)/C=C/NC(=O)c1cc2c([nH]c3ccccc32)c(C(C)=O)n1 [DICHOTOMIDE III]
18.6 µM	COC(=O)/C=C\NC(=O)c1cc2c([nH]c3ccccc32)c(C(C)=O)n1 [STELLARINES B]

Second part, the compound before the results:

SMILES	IC50
COC(=O)c1cc2c([nH]c3ccccc32)c(C(C)=O)n1	17.9 µM
C/C=C(/C)C(=O)O[C@@H](C)c1nc(C(=O)N/C=C/C(=O)OC)cc2c1[nH]c1ccccc12 [DICHOTOMIDE X]	11.3 µM
N=C(N)NN [PIMAGEDINE]	4.6 µM
CC(=O)c1nc(C(N)=O)cc2c1[nH]c1ccccc12 [STELLARINES A]	19.3 µM
